From patent US9682991B2, “Tricyclic compounds for use as kinase inhibitors” (FUNDACIÓN CENTRO NACIONAL DE INVESTIGACIONES ONCOLOGICAS …, priority 2009, dated 2017)
Like-named read-outs stand apart in the source and are kept apart here. One block for each molecule: values may come before it.

Key:
[1] = test system: MV4:11 cells (leukemia, AML); test: MTT in vitro cell proliferation / combination assay, MV4:11; type: cell-based; conditions: for EC50: Homo sapiens, MV4:11, example compound alone
Experimental: (§1) A combination index score is calculated by the Chou and Talalay method (CalcuSyn software, Biosoft). The strength of synergy is scored using the ranking system Chou and Talalay: CI less than 0.8 indicates synergy, CI between 0.8 and 1.2 indicates additivity and CI greater than 1.2 indicates antagonism.
(§2) The EC50 values of representative combinations were also calculated. The individually measured EC50 values of the chemotherapeutic agent and the example compounds are compared to the EC50 value of the combination. The cell lines are characterised by tumor type. […]

PIM-1 = PIM-1 (Homo sapiens (Human), UniProt P11309); test: PIM-1 biochemical assay (ADP Hunter); conditions: read-out: PIM1 IC50; semi-quantitative
Chain of PIM-1 (P11309 whole entry): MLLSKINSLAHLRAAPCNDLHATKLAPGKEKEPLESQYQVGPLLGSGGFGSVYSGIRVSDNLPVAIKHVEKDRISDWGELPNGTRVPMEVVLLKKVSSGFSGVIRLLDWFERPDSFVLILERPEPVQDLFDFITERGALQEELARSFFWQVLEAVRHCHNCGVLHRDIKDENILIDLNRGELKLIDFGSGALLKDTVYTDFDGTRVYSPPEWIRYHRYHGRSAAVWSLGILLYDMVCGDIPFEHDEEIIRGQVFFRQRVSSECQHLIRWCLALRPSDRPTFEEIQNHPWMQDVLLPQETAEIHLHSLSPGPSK

[2] = test system: Mantle cell lymphoma cells; test: MTT in vitro cell proliferation / combination assay, mantle cell lymphoma (cell line not given); type: cell-based; conditions: Mantle cell lymphoma (cell line cell empty)
Experimental: (§3) Proliferation assays (MTT) were performed as described in: • “Chemical interrogation of FOXO3a nuclear translocation identifies potent and selective inhibitors of phosphoinositide 3-kinases”, W. Link, J. Oyarzabal, B. G. Serelde, M. I. Albarran, O. Rabal, A. Cebria, P. Alfonso, J. Fominaya, O. Renner, S. Peregrina, D. Soilan, P. A. Ceballos, A. I. Hernandez, M. Lorenzo, P. Pevarello, T. G. Granda, G. Kurz, A. Carnero, J. R. Bischoff, J. Biol. Chem. 284 (2009) 28392-28400. Combination Assay
as §1
(§4) The EC50 values of representative combinations were also calculated. The individually measured EC50 values of the chemotherapeutic agent and the example compounds are compared to the EC50 value of the combination. The cell lines are characterised by tumor type.
(§5) Combination assays were performed as described in: • “Pim 1 kinase inhibitor ETP-45299 suppresses cellular proliferation and synergizes with PI3K inhibition”. Blanco-Aparicio, Carmen; Collazo, Ana Maria Garcia; Oyarzabal, Julen; Leal, Juan F.; Albaran, Maria Isabel; Lima, Francisco Ramos; Pequeno, Belen; Ajenjo, Nuria; Becerra, Mercedes; Alfonso, Patricia; Reymundo, Maria Isabel; Palacios, Irene; Mateos, Genoveva; Quinones, Helena; Corrionero, Ana; Carnero, Amancio; Pevarello, Paolo; Lopez, Ana Rodriguez; Fominaya, Jesus; Pastor, Joaquin; Bischoff, James R. Cancer Letters (Shannon, Ireland) 2011, 300(2), 145-153.

[3] = test system: HTC116 cells (colon carcinoma); test: MTT in vitro cell proliferation / combination assay, HTC116; type: cell-based
Experimental: as §1, §4

[4] = test system: Jeko-1 cells (Mantle cell lymphoma); test: MTT in vitro cell proliferation / combination assay, Jeko-1; type: cell-based; conditions: for EC50: Homo sapiens
Experimental: as §1, §4
(§6) Blanco-Aparicio, Carmen; Collazo, Ana Maria Garcia; Oyarzabal, Julen; Leal, Juan F.; Albaran, Maria Isabel; Lima, Francisco Ramos; Pequeno, Belen; Ajenjo, Nuria; Becerra, Mercedes; Alfonso, Patricia; Reymundo, Maria Isabel; Palacios, Irene; Mateos, Genoveva; Quinones, Helena; Corrionero, Ana; Carnero, Amancio; Pevarello, Paolo; Lopez, Ana Rodriguez; Fominaya, Jesus; Pastor, Joaquin; Bischoff, James R. Cancer Letters (Shannon, Ireland) 2011, 300(2), 145-153.

DU145 cells (prostate) = test: MTT in vitro cell proliferation / combination assay, DU145; type: cell-based
Experimental: as §3, §1, §4, §5

[5] = test system: A549 cells (lung adenocarcinoma); test: MTT in vitro cell proliferation / combination assay, A549; type: cell-based
Experimental: as §1, §4, §6

SKMel19 cells (melanoma) = test: MTT in vitro cell proliferation / combination assay, SKMel19; type: cell-based
Experimental: as §1, §2

[6] = test system: MiaPaca-2 cells (pancreas); test: MTT in vitro cell proliferation / combination assay, MiaPaca-2; type: cell-based; conditions: for EC50: Homo sapiens, MIA PaCa-2
Experimental: as §3, §1, §4, §5

[7] = test system: NCI H1975 cells (non small cell lung carcinoma); test: MTT in vitro cell proliferation / combination assay, NCI H1975; type: cell-based
Experimental: as §1, §4, §6

[8] = MV4:11, combination with GDC-0941
[9] = MV4:11, combination with lapatinib
[10] = HTC116, combination with PD-0325901
[11] = HTC116, combination with lapatinib
[12] = Jeko-1, combination with GDC-0941
[13] = Jeko-1, combination with lapatinib
[14] = DU145, combination with Taxotere
[15] = A549, combination with GDC-0941
[16] = SKMel19, combination with GDC-0879
[17] = SKMel19, combination with GDC-0941
[18] = MiaPaca-2, combination with lapatinib
[19] = NCI H1975, combination with GDC-0941

EC50 [1]: 5000 nM
IC50 (PIM-1): < 100 nM
EC50 ([2]; example compound alone, read-out: Example EC50): 10 µM
SMILES: CN1CCC(CNc2nn3c(-c4cccc(OC(F)(F)F)c4)nnc3c3c2N(C)CCO3)CC1 [Example 16, (1-Methyl-piperidin-4-ylmethyl)-[6-methyl-3-(3-trifluoromethoxy-phenyl)-7,8-dihydro-6H-9-oxa-1,2,3a,4,6-pentaaza-cyclopenta[a]naphthalen-5-yl]-amine]
Combination Index (CI) [1, 8]: 0.585
Synergy [1, 8]: ++ (0.3<C1<0.7)
Combination Index (CI) ([2]; combination with lapatinib): 0.289
Synergy ([2]; combination with lapatinib): +++ (0.1<CI<0.3)

EC50 [1]: 1000 nM
EC50 ([3]; HTC116, example compound alone, read-out: Example EC50): 10 µM
EC50 ([4]; Jeko-1, example compound alone, read-out: Example EC50): 2.5 µM
EC50 (DU145 cells (prostate); Homo sapiens, DU-145, DU145, example compound alone, read-out: Example EC50): 15 µM
EC50 ([5]; Homo sapiens, A549, example compound alone): 6 µM
IC50 (PIM-1): < 100 nM
EC50 (SKMel19 cells (melanoma); Homo sapiens, SK-MEL19, SKMel19, example compound alone): 3 µM
EC50 (SKMel19 cells (melanoma); SKMel19, example compound alone): 4 µM
EC50 ([6]; MiaPaca-2, example compound alone, read-out: Example EC50): 5 µM
SMILES: CN1CCOc2c1c(N1CCC3(CC1)CC(N)C3)nn1c(-c3cccc(OC(F)(F)F)c3)nnc21 [Example 48, 7-[6-Methyl-3-(3-trifluoromethoxy-phenyl)-7,8-dihydro-6H-9-oxa-1,2,3a,4,6-pentaaza-cyclopenta[a]naphthalen-5-yl]-7-aza-spiro[3.5]non-2-ylamine]
Combination Index (CI) [1, 8]: 0.3
Synergy [1, 8]: +++ (0.1<CI<0.3)
Combination Index (CI) [1, 9]: 0.548
Synergy [1, 9]: ++ (0.3<C1<0.7)
Combination Index (CI) [3, 10]: 0.759
Synergy [3, 10]: + (0.7<C1<1.2)
Combination Index (CI) [3, 11]: 0.608
Synergy [3, 11]: ++ (0.3<C1<0.7)
Combination Index (CI) [4, 12]: 0.718
Synergy [4, 12]: + (0.7<C1<1.2)
Combination Index (CI) [4, 13]: 0.244
Synergy [4, 13]: +++ (0.1<CI<0.3)
Combination Index (CI) (DU145 cells (prostate); [14]): 0.704
Synergy (DU145 cells (prostate); [14]): + (0.7<C1<1.2)
Combination Index (CI) [5, 15]: 0.12
Synergy [5, 15]: +++ (0.1<CI<0.3)
Combination Index (CI) (SKMel19 cells (melanoma); [16]): 0.319
Synergy (SKMel19 cells (melanoma); [16]): ++ (0.3<C1<0.7)
Combination Index (CI) (SKMel19 cells (melanoma); [17]): 0.571
Synergy (SKMel19 cells (melanoma); [17]): ++ (0.3<C1<0.7)
Combination Index (CI) [6, 18]: 0.57
Synergy [6, 18]: ++ (0.3<C1<0.7)
EC50 ([7]; Homo sapiens, NCI H1975, example compound alone): 5 µM
Combination Index (CI) [7, 19]: 0.038
Synergy [7, 19]: ++++ (CI<0.1)

EC50 ([3]; HTC116, chemotherapeutic alone, read-out: Chemoth EC50): 10 µM
EC50 ([4]; Jeko-1, chemotherapeutic alone, read-out: Chemoth EC50): 5 µM
EC50 ([6]; MiaPaca-2, chemotherapeutic alone, read-out: Chemoth EC50): 20 µM
EC50 ([2]; chemotherapeutic alone, read-out: Chemoth EC50): 5 µM
SMILES: CS(=O)(=O)CCNCc1ccc(-c2ccc3ncnc(Nc4ccc(OCc5cccc(F)c5)c(Cl)c4)c3c2)o1 [lapatinib, N-(3-chloro-4-(3-fluorobenzyloxy)phenyl)-6-(5-((2-(methylsulfonyl)ethylamino)-methyl)furan-2-yl)quinazolin-4-amine, reference compound]
